# Assay results from patent publication US20210094922A1, “Dyes for Analysis of Soluble Protein Aggregates or Misfolded Protein Oligomers” (The Penn State Research Foundation, priority 2018, published 2021).
# Key:
# SOD1-A4V-Halo = SOD1-A4V-Halo (Homo sapiens, UniProt P00441, A5V); experiment: In vitro heat-induced aggregation of SOD1-A4V-Halo conjugates; assay type: biochemical
# Excerpt: (B-C) Excitation and emission spectra of 4 (with misfolded oligomers of SOD1-A4V-Halo) and 5 (with insoluble aggregates of SOD1-A4V-Halo).
# The inventors installed Halo-tag reactive warhead to 2, resulting in 5.
# [1] = Photophysical parameters of fluorophores in glycerol; assay type: physicochemical
# Method: FP analogues (20 μM) were prepared in glycerol:H2O mixture with increasing glycerol concentrations. In addition, fluorescence intensity in 1,4-dioxane was measured to evaluate their response to polarity. Fluorescence measurement was carried out using a Tecan infinite M1000Pro fluorescence microplate reader at excitation and emission wavelengths as indicated. All readings were normalized against the fluorescence intensity in 100% glycerol as 1. Error bars: standard error (n=3).
# FP analogues (20 μM) were prepared in glycerol. Spectra were collected with emission wavelength of 420 nm for 1, 525 nm for 2, 620 nm for 3, 3a and 3b. All measurements were carried out using a Tecan infinite M1000Pro fluorescence microplate reader.
# FP analogues (20 μM) were prepared in glycerol. Spectra were collected with excitation wavelength of 370 nm for 1, 455 nm for 2, 530 nm for 3 and 3b, 485 nm for 3a. All measurements were carried out using a Tecan infinite M1000Pro fluorescence microplate reader.
# FP analogues (10 μM) were prepared in glycerol. Spectra were collected with 10 mm quartz cuvette. All measurements were carried out using Agilent 300 UV-Vis spectrophotometer.
# However, the quantum yield (QY, Φ=0.001 for 1 and Φ=0.027 for 2 in glycerol, Table 2) was much lower than that of a GFP (Φ=0.79).
# SOD1(V31A)-Halo [2] = biological target: SOD1(V31A)-Halo (Rhodococcus rhodochrous, UniProt P0A3G2, A155T/A167V/A172T/A224E/C128F/C176G/D78G/E160K/E257K/H272N/K175M/K195N/L47V/L88M/N227D/P291S/S58T/T264A/Y273L/Y87F); experiment: In vitro heat-induced aggregation of purified SOD1(V31A)-Halo-4 conjugate; assay type: biochemical; design: made in house; host or cells: E. coli BL21 DE3* (pET29b; pBAD σ32-I54N co-expressed)
# Method: (§1) (a) Purified SOD1(V31A)-Halo and Halo-Tag proteins (42 μM), both of which were conjugated with 4 (21 μM), were incubated at varying temperatures (25, 37, 38.9, 41.8, 45.6, 50.7, 54.5, 57.2, and 59° C.). As control samples, 4 (21 μM) was prepared in buffer, 1,4-dioxane, glycerol, BSA (2 mg/mL). Fluorescence intensity was recorded at Ex=530 nm/Em=600 nm. All readings were normalized to intensity of the Halo-Tag-4 conjugate at 25° C. Fluorescence of protein samples was also visualized via UV transilluminator. In addition, protein samples were centrifuged at 21,000 g for 30 min at 4° C. to analyze their insoluble fraction using fluorescence of 4 as signal on SDS-PAGE gel. […] This fluorescence was not originated from aggregation of Halo-Tag domain, as evidenced by the low fluorescence of the Halo-4 conjugate and lack of significant insoluble fraction at these temperatures. Error bars: standard error (n=3). (b) Purified SOD1(V31A)-Halo and Halo-Tag proteins ([…]) were conjugated with 4 (21 μM) and incubated at 54.5° C. Fluorescence was recorded using Agilent Carey Eclipse fluorescence spectrophotometer with temperature control. Buffer condition: 50 mM Tris-HCl, pH 7.5, 100 mM NaCl, 83 mM EDTA. Parameters for fluorescence measurement: 4 (Ea=530 nm/Em=600 nm).
# (§2) (a) Purified SOD1(V31A)-Halo (42 μM) was conjugated with 4 (21 μM) and incubated at 54.5° C. Fluorescence was recorded using Agilent Carey Eclipse fluorescence spectrophotometer with temperature control. Turbidity was recorded using Agilent 300 UV-Vis spectrophotometer. Buffer condition: 50 mM Tris-HCl, pH 7.5, 100 mM NaCl, 83 mM EDTA. (b) Kinetics of fluorescence increases from the SOD1(V31A)-Halo-4 conjugate (red curve) was compared to the kinetics of protein misfolding (black curve) as measured by Tryptophan fluorescence change. Fluorescence was recorded using Agilent Carey Eclipse fluorescence spectrophotometer with temperature control. Experiments were carried out at 54.5° C. Parameters for fluorescence measurement: 4 (Ex=530 nm/Em=600 nm) and Trp (Ex=290 nm/Em=330 and 345 nm). Error bars: standard error (n=3).
# SOD1(V31A)-Halo [3] = biological target: SOD1(V31A)-Halo (UniProt P00441+P0A3G2, A155T/A167V/A172T/A224E/C128F/C176G/D78G/E160K/E257K/H272N/K175M/K195N/L47V/L88M/N227D/S58T/T264A/V32A/Y273L/Y87F); experiment: as above; assay type: biochemical; design: made in house; host or cells: E. coli BL21 DE3* (pET29b; pBAD σ32-I54N co-expressed)
# Method: as §1, §2
# [4] = 4 with misfolded oligomers, 5 with insoluble aggregates of SOD1-A4V-Halo
# SOD1(V31A)-Halo (UniProt P00441+P0A3G2, A155T/A167V/A172T/A224E/C128F/C176G/D78G/E160K/E257K/H272N/K175M/K195N/L47V/L88M/N227D/S58T/T264A/V32A/Y273L/Y87F), sequence (P00441+P0A3G2 fused with the stated changes): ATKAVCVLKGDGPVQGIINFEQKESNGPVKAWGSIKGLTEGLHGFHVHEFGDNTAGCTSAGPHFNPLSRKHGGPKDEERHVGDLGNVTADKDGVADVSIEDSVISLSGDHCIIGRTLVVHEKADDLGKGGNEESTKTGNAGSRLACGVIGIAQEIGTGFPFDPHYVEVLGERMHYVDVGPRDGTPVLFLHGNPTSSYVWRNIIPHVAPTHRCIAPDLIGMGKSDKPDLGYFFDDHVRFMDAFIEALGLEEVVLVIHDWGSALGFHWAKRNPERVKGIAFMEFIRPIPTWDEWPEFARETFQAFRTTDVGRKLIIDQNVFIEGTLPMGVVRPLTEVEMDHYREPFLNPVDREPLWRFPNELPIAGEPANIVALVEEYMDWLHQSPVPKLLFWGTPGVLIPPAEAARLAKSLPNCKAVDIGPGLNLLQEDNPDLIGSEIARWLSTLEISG
# SOD1-A4V-Halo, sequence (P00441 with tags, fused parts or gaps A5V): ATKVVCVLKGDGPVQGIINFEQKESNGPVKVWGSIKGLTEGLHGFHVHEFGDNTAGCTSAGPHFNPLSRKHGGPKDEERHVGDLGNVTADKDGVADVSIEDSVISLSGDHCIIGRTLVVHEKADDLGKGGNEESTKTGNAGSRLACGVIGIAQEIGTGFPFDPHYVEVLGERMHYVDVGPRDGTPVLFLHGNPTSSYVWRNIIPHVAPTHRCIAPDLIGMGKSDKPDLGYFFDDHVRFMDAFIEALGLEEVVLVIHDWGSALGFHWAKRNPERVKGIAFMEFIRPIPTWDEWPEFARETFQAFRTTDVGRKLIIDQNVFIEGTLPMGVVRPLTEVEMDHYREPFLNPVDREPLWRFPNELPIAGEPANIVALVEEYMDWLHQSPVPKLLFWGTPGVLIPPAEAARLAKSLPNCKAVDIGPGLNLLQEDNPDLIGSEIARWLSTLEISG
# SOD1(V31A)-Halo (Rhodococcus rhodochrous, UniProt P0A3G2, A155T/A167V/A172T/A224E/C128F/C176G/D78G/E160K/E257K/H272N/K175M/K195N/L47V/L88M/N227D/P291S/S58T/T264A/Y273L/Y87F), sequence (P0A3G2 other isoform, or with tags, fused parts or gaps with the stated changes): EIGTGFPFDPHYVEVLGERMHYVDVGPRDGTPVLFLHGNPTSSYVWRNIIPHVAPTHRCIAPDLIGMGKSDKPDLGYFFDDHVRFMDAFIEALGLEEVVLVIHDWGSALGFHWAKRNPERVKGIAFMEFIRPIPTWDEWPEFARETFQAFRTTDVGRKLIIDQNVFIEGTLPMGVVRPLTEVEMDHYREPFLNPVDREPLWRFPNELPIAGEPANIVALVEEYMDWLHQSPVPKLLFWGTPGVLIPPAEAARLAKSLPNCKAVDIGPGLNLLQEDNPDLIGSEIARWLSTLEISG
smiles,measurement,setting,value
"CN(C)c1ccc(/C=C2N=C(/C=C/c3ccc(N(CCO)CCO)cc3)N(CC(=O)N[C@H]3CC[C@H](C(=O)NCCOCCOCCCCCCCl)CC3)C\2=O)cc1 [Compound 4, (1r,4r)-4-(2-((Z)-2-((E)-4-(bis(2-hydroxyethyl)amino)styryl)-4-(4-(dimethylamino)benzylidene)-5-oxo-4,5-dihydro-1H-imidazol-1-yl)acetamido)-N-(2-(2-((6-chlorohexyl)oxy)ethoxy)ethyl)cyclohexanecarboxamide]",Em,SOD1-A4V-Halo; [4],600 nm
same,Ex,SOD1-A4V-Halo; [4],530 nm
same,kinetics of fluorescence increase versus turbidity,SOD1-A4V-Halo; SOD1-A4V-Halo conjugate,faster than that of turbidity
same,fluorescent properties of 4 compared with 3,[1],identical to 3
same,B (brightness),[1]; calculated using B = Φϵ,"8,734 M^−1cm^−1"
same,Φ (quantum yield),[1]; in glycerol,0.230
same,λem,[1]; in glycerol,628 nm
same,λex,[1]; in glycerol,530 nm
same,λabs,[1]; maximum absorbance measured in glycerol,534 nm
same,ϵ (extinction coefficient),[1]; measured in glycerol,"36,241 M^−1cm^−1"
same,fluorescence of the Halo-4 conjugate control under heat,SOD1(V31A)-Halo [2],remained non-fluorescent under all heat conditions
same,fluorescence of the SOD1(V31A)-Halo-4 conjugate under heat,SOD1(V31A)-Halo [3],increased in the absence of insoluble protein aggregates
same,kinetics of fluorescence increase versus turbidity,SOD1(V31A)-Halo [3]; 54.5° C.,much faster than the kinetics of turbidity
same,kinetics of fluorescence versus protein misfolding,SOD1(V31A)-Halo [3]; 54.5° C.,coincided with the kinetics of protein misfolding
